One assay has as its target BACE1 enzyme (Homo sapiens (Human), UniProt P56817). As to the kind of experiment: BACE1 Cell-Free Assay (fluorescence polarization, cleavage of synthetic APP substrate). The class given is biochemical. The following applies: geometric mean of 2-3 determinations; Examples 32-34 (footnote b) single determination. From the text: Beta-secretase (BACE) is one of the enzymes involved in the generation of the amyloid beta peptide found in the amyloid plaques of Alzheimer's Disease patients. This assay measures the inhibition of the beta-secretase enzyme as it cleaves a non-native peptide.
A synthetic APP substrate that can be cleaved by beta-secretase having N-terminal biotin and made fluorescent by the covalent attachment of Oregon Green at the Cys residue is used to assay beta-secretase activity in the presence or absence of the inhibitory compounds. The substrate is Biotin-GLTNIKTEEISEISY^EVEFR-C[Oregon Green]KK-OH. The BACE1 enzyme is affinity purified material from conditioned media of CHO-K1 cells that have been transfected with a soluble BACE construct (BACE1deltaTM96His). Compounds are incubated in a log dose response curve from a top concentration of 100 μM with BACE1 enzyme and the biotinylated fluorescent peptide in 384-well black plates (Thermo Scientific #4318). BACE1 is at a final concentration of 0.1 nM with a final concentration of peptide substrate of 150 nM in a reaction volume of 30 μL assay buffer [100 mM sodium acetate, pH 4.5 (brought to pH with acetic acid), and 0.001% Tween-20]. Plates are covered and incubated for 3 hours at 37° C. The reaction is stopped with the addition of 30 μL of 1.5 μM Streptavidin (Pierce, #21125). After a 10 minute incubation at room temperature, plates are read on a PerkinElmer EnVision for fluorescence polarization (Ex485 nm/Em530 nm). The activity of the beta-secretase enzyme is detected by changes in the fluorescence polarization that occur when the substrate is cleaved by the enzyme.

Assay [1] deals with sAPPβ levels in H4 human neuroglioma cells over-expressing the wild-type human APP695. As to the kind of experiment: Whole Cell Assay (In Vitro sAPPβ Assay), TMB-ELISA. Format: cell-based. The following applies: 18 hours, geometric mean of 2-3 determinations, Examples 32-34 (footnote b) single determination. The protocol: Whole Cell Assay (In Vitro sAPPpβ Assay):
H4 human neuroglioma cells over-expressing the wild-type human APP695 are treated for 18 hours with compound in a final concentration 1% DMSO. sAPPβ levels are measured using TMB-ELISA with capture APP N-terminal antibody (Affinity BioReagents, OMA1-03132), wild-type sAPPβ specific reporter p192 (Elan), and tertiary anti rabbit-HRP (GE Healthcare).
On the technique in general: In an ELISA, binding on a coated surface is turned into a signal by an enzyme label.

Structures are written as SMILES.

Sequence of BACE1 enzyme (P56817 46-457): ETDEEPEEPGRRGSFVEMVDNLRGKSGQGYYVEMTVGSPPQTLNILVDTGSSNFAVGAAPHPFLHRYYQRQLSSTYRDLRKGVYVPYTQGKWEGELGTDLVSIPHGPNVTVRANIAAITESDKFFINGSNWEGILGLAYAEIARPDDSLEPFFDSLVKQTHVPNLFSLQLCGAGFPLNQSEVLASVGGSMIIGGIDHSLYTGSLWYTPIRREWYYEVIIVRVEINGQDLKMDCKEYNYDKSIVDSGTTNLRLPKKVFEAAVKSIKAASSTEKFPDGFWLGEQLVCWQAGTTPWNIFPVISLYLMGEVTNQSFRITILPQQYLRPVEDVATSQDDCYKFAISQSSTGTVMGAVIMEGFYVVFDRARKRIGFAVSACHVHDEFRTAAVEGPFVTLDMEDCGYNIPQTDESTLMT

Consider `COCc1ccc([C@H]2C[C@H]3CSC(N)=N[C@@]3(c3ccc(F)cc3F)CO2)cc1` [Example 25, (4aR,6R,8aS)-8a-(2,4-difluorophenyl)-6-[4-(methoxymethyl)phenyl]-4,4a,5,6,8,8a-hexahydropyrano[3,4-d][1,3]thiazin-2-amine], for which the IC50 is 22 nM at BACE1 enzyme and 0.01 nM in assay [1].

For `NC1=N[C@@]2(c3ccc(F)cc3F)CO[C@@H](c3ccc4c(c3)CCO4)C[C@H]2CS1` [Example 26, (4aR,6R,8aS)-8a-(2,4-difluorophenyl)-6-(2,3-dihydro-1-benzofuran-5-yl)-4,4a,5,6,8,8a-hexahydropyrano[3,4-d][1,3]thiazin-2-amine], the IC50 against BACE1 enzyme was found to be 6 nM; in assay [1], 0.005 nM.

Regarding `NC1=N[C@@]2(c3ccc(F)cc3F)CO[C@@H](c3ccc4c(c3)OCO4)C[C@H]2CS1` [Example 27, (4aR,6R,8aS)-6-(1,3-benzodioxol-5-yl)-8a-(2,4-difluorophenyl)-4,4a, 5,6,8,8a-hexahydropyrano[3,4-d][1,3]thiazin-2-amine], the 50% inhibitory concentration (IC50) against BACE1 enzyme came out at 19 nM; in assay [1], 0.008 nM.

Regarding `COC(C)c1ccc([C@H]2C[C@H]3CSC(N)=N[C@@]3(c3ccc(F)cc3F)CO2)cc1` (stereo partly drawn) [Example 28, (4aR,6R,8aS)-8a-(2,4-difluorophenyl)-6-[4-(1-methoxyethyl)phenyl]-4,4a,5,6,8,8a-hexahydropyrano[3,4-d][1,3]thiazin-2-amine], the half-maximal inhibitory concentration (IC50) against BACE1 enzyme was determined as 210 nM; in assay [1], 0.055 nM.

As to `N#Cc1cccc([C@H]2C[C@H]3CSC(N)=N[C@@]3(c3ccc(F)cc3F)CO2)c1` [Example 29, 3-[(4aR,6R,8aS)-2-amino-8a-(2,4-difluorophenyl)-4,4a,5,6,8,8a-hexahydropyrano[3,4-d][1,3]thiazin-6-yl]benzonitrile], the half-inhibitory concentration (IC50) was determined as 99 nM on BACE1 enzyme and 0.012 nM in assay [1].

Turning to `C[C@H]1SC(N)=N[C@@]2(c3ccc(F)cc3F)CO[C@@H](c3ccc(F)cc3)C[C@@H]12` [Example 32, (4R,4aR,6R,8aS)-8a-(2,4-Difluorophenyl)-6-(4-fluorophenyl)-4-methyl-4,4a,5,6,8,8a-hexahydropyrano[3,4-d][1,3]thiazin-2-amine], the IC50 on BACE1 enzyme is 15 nM; in assay [1], 0.004 nM.

In the case of `C[C@H]1SC(N)=N[C@@]2(c3ccc(F)cc3F)CO[C@@H](c3ccc(C#N)cc3)C[C@@H]12` [Example 33, (4R,4aR,6R,8aS)-8a-(2,4-Difluorophenyl)-6-(4-cyanophenyl)-4-methyl-4,4a,5,6,8,8a-hexahydropyrano[3,4-d][1,3]thiazin-2-amine], the values for the half-inhibitory concentration (IC50) (against BACE1 enzyme; in assay [1]) were 11 nM and 0.006 nM, respectively.

For `C[C@H]1SC(N)=N[C@@]2(c3ccc(F)cc3F)CO[C@@H](c3cccc(C#N)c3)C[C@@H]12` [Example 34, (4R,4aR,6R,8aS)-8a-(2,4-Difluorophenyl)-6-(3-cyanophenyl)-4-methyl-4,4a,5,6,8,8a-hexahydropyrano[3,4-d][1,3]thiazin-2-amine], the IC50 is 14 nM against BACE1 enzyme and 0.004 nM in assay [1].

One may read the IC50 as the concentration needed to halve the response being measured. Lower therefore signals higher potency.

The record behind these values is patent US9233981B1, “Substituted phenyl hexahydropyrano[3,4-d][1,3]thiazin-2-amine compounds” (Pfizer Inc., priority 2013, dated 2016).
